Results on seven compounds are retold here after ChEMBL document CHEMBL1201862, “PubChem BioAssay data set” (2004).

Some test systems named below: 786-0; A549; CAKI-1; HCT-116; MCF7; MDA-MB-231; MDA-MB-435; NCI-H226; NCI-H23; OVCAR-5; RPMI-8226; RXF 393; SF-268; SF-295; SK-MEL-5; SK-OV-3; SN12C; SW-620; UO-31; HT-29.
Assay in all cases: growth of human tumour cells (NCI), 48 h

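Cultured in 96-well plates, cells were exposed to test compound for 48 hours across five concentrations. Abbreviation: GI50, concentration required for 50% inhibition of growth.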 Calls of active or inactive are those of the source. Rule as the data show it: active = GI50 up to about 1.1 µM and inactive = higher.

Consider `N#Cc1c(-c2ccccc2)c(/C=N/c2cccc(C(F)(F)F)c2)c(=O)n2c1[nH]c1ccccc12`, for which the GI50 in the test with 786-0 was 36.1 µM (inactive); with A549 it was 23.6 µM (inactive); with CAKI-1 it was 2.07 µM (inactive); in the test with HCT-116, 29.6 µM (inactive); with MCF7, 35.6 µM (inactive); with MDA-MB-231, 42.3 µM (inactive). Further, the GI50 is 39.5 µM (inactive) with MDA-MB-435; 26.7 µM (inactive) in the test on NCI-H226; 34.9 µM (inactive) in the test with NCI-H23; 10.8 µM (inactive) with OVCAR-5; 6.35 µM (inactive) in the test on RPMI-8226; 32.8 µM (inactive) with RXF 393. Besides, the GI50 in the test on SF-268 is 35.6 µM (inactive); in the test on SF-295, 46.2 µM (inactive); in the test with SK-MEL-5, 52 µM (inactive); in the test on SK-OV-3, 26.9 µM (inactive); in the test on SN12C, 17.4 µM (inactive); with SW-620 it was 30.2 µM (inactive). In addition, the GI50 in the test with UO-31 is 7.62 µM (inactive).
As for `CCOC(=O)C1=C(C)N(Cc2ccccc2)C2(O)C=CC(=O)C3C(=O)N(c4ccccc4)C(=O)C132` (stereo not drawn), the GI50 with 786-0 was 1.59 µM (inactive); in the test on A549, 2.86 µM (inactive); in the test with CAKI-1 it was 1.53 µM (inactive); in the test with HCT-116 it was 1.15 µM (inactive); in the test with HT-29 it was 1.7 µM (inactive); with MCF7 it was 2.25 µM (inactive). Also, the GI50 in the test with MDA-MB-231 was 3.96 µM (inactive); in the test on MDA-MB-435, 1.89 µM (inactive); with NCI-H226, 2.45 µM (inactive); in the test on NCI-H23, 2.56 µM (inactive); with OVCAR-5, 3.43 µM (inactive); in the test with RPMI-8226, 1.03 µM (active). Further, the GI50 was 1.35 µM (inactive) in the test with RXF 393; 2.54 µM (inactive) in the test on SF-268; 3.58 µM (inactive) in the test with SF-295; 3.57 µM (inactive) in the test with SK-MEL-5; 6.75 µM (inactive) in the test on SK-OV-3; 2.56 µM (inactive) in the test with SN12C. In addition, in the test with UO-31, the GI50 is 1.89 µM (inactive).
Consider `[O-][N+]1=C(c2ccccc2)/C(=C2/C(c3ccccc3)=[N+]([O-])c3ccccc32)Cc2ccccc21`, for which the GI50 in the test with 786-0 was 15.3 µM (inactive); with A549 it was 13.8 µM (inactive); with CAKI-1 it was 22 µM (inactive); in the test with HCT-116, 17.1 µM (inactive); with HT-29 it was 19.4 µM (inactive); in the test on MCF7, 43.4 µM (inactive). Moreover, the GI50 was 13.6 µM (inactive) in the test on MDA-MB-231; 20.2 µM (inactive) in the test with MDA-MB-435; 22.5 µM (inactive) with NCI-H226; 15.5 µM (inactive) with NCI-H23; 33.6 µM (inactive) with OVCAR-5; 21.1 µM (inactive) in the test with RPMI-8226. The GI50 is 33.1 µM (inactive) in the test on RXF 393; 15.3 µM (inactive) in the test with SF-295; 17.6 µM (inactive) in the test on SK-MEL-5; 26.4 µM (inactive) in the test on SK-OV-3; 16.6 µM (inactive) with SN12C; 22.4 µM (inactive) in the test on SW-620. Moreover, the GI50 in the test with UO-31 is 14.5 µM (inactive).
Take `Cc1nc2sc3ccccc3n2c(=O)c1/N=N/c1ccc(Br)cc1`: the GI50 with 786-0 was > 100 µM (inactive); in the test on A549, > 100 µM (inactive); with CAKI-1, > 100 µM (inactive); with HCT-116, > 100 µM (inactive); with HT-29, > 100 µM (inactive); in the test on MCF7 it was 81.3 µM (inactive). Also, the GI50 in the test with MDA-MB-231 is 60.1 µM (inactive); in the test with MDA-MB-435 it was > 100 µM (inactive); in the test on NCI-H226, 44.8 µM (inactive); in the test on NCI-H23, > 100 µM (inactive); with OVCAR-5, > 100 µM (inactive); in the test with RPMI-8226, 71.3 µM (inactive). The GI50 in the test on RXF 393 was > 100 µM (inactive); with SF-268, 70.5 µM (inactive); in the test with SF-295, > 100 µM (inactive); in the test with SK-MEL-5, > 100 µM (inactive); in the test on SK-OV-3, > 100 µM (inactive); in the test with SN12C, > 100 µM (inactive). Besides, the GI50 with SW-620 is > 100 µM (inactive).
For the compound `S=c1nc(Nc2ccc(Cl)cc2)c2c3c(sc2[nH]1)CCCC3`, the GI50 was > 100 µM (inactive) in the test on 786-0; > 100 µM (inactive) with CAKI-1; > 100 µM (inactive) in the test with HCT-116; > 100 µM (inactive) in the test with HT-29; 90.2 µM (inactive) in the test with MCF7; > 100 µM (inactive) in the test with MDA-MB-231. Further, the GI50 was > 100 µM (inactive) in the test with MDA-MB-435; > 100 µM (inactive) in the test on NCI-H226; 45.1 µM (inactive) with NCI-H23; > 100 µM (inactive) in the test on OVCAR-5; 24.4 µM (inactive) in the test with RPMI-8226; > 100 µM (inactive) with RXF 393. Besides, the GI50 in the test on SF-268, in the test with SF-295, in the test on SK-MEL-5, in the test with SK-OV-3, with SN12C and in the test on SW-620 was > 100 µM (inactive) in each case. For the same compound, in the test on UO-31, the GI50 was > 100 µM (inactive).
Consider `Cc1nc(NC(C)(CO)CO)nc(N/N=C/c2ccc(Cl)cc2)c1C(=O)Nc1ccc(Cl)cc1`, for which the GI50 in the test with 786-0 is > 100 µM (inactive); in the test on A549, 77.3 µM (inactive); in the test with CAKI-1, > 100 µM (inactive); in the test with HCT-116, 80.2 µM (inactive); with HT-29, > 100 µM (inactive); in the test with MCF7 it was 51.1 µM (inactive). In addition, the GI50 in the test with MDA-MB-231, with MDA-MB-435, with NCI-H226, with NCI-H23, in the test on OVCAR-5 and in the test with RPMI-8226 was > 100 µM (inactive) throughout. Besides, the GI50 was 28.4 µM (inactive) in the test on RXF 393; > 100 µM (inactive) in the test on SF-268; > 100 µM (inactive) with SF-295; > 100 µM (inactive) with SK-OV-3; > 100 µM (inactive) in the test with SN12C; > 100 µM (inactive) in the test with SW-620. The GI50 in the test on UO-31 is > 100 µM (inactive).
`O=S(=O)(O)c1cc(Nc2ccnc3ccccc23)c2c(S(=O)(=O)O)cc(S(=O)(=O)O)cc2c1`: the GI50 in the test on 786-0, with A549, with CAKI-1, with HCT-116, with HT-29 and with MCF7 was > 100 µM (inactive) throughout. For the same compound, the GI50 in the test on MDA-MB-231, with MDA-MB-435, with NCI-H226, with NCI-H23, with OVCAR-5 and in the test with RPMI-8226 was > 100 µM (inactive) each time. Further, the GI50 with RXF 393 was > 100 µM (inactive); in the test with SF-268 it was > 100 µM (inactive); in the test with SK-MEL-5, > 100 µM (inactive); in the test on SK-OV-3, > 100 µM (inactive); in the test on SN12C it was > 100 µM (inactive); in the test with SW-620, 42.1 µM (inactive). Moreover, the GI50 in the test on UO-31 was > 100 µM (inactive).
